Target: T1, tRNA (guanine-N(1)-)-methyltransferase (Haemophilus influenzae (strain ATCC 51907 / DSM 11121 / KW20 / Rd), UniProt P43912)
T1 sequence (P43912 whole entry): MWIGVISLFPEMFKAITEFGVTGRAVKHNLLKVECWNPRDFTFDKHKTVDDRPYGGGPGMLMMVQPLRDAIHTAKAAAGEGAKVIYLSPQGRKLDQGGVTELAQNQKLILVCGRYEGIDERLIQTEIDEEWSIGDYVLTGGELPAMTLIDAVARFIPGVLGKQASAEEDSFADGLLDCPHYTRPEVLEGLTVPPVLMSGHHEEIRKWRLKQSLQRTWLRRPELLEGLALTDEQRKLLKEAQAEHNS
Experiment: ScintillationProximity_Assay
From the text: ScintillationProximity_Assay

| IC50 [nM] | SMILES |
| --- | --- |
| 2000 | NC(=O)c1ccc(NCc2cccc(O)c2)nc1 [GTC000452A] |
| 158000 | c1cc(-c2c[nH]cn2)ccn1 |
| 1260 | NC(=O)c1ccc(NCc2ccccc2O)nc1 [GTC000459A] |
| 2000 | Nc1nonc1C(=O)NCC1CCCCC1 [GTC000462A] |
| 1590 | NC(=O)c1ccc(N[C@@H]2C[C@H](CO)[C@@H](O)C2)nc1 [GTC000468A] |
| 39800 | Nc1nonc1C(=O)NCc1ccc(Cl)cc1 [GTC000448A] |
| 15800 | Nc1nonc1C(=O)N1CCN(Cc2ccccn2)CC1 [GTC000463A] |
| 631 | NC(=O)c1ccc(NC2CCC(c3ccccc3)C2)nc1 (stereo unspecified) [GTC000467A] |
| 5.01 | CC(C)(C)c1cccc(C(=O)NCC2(NC(=O)c3cccc4nocc34)CCCCC2)c1 [GTC000449A] |
| 501 | NC(=O)c1ccc(NCC2CCCC2)nc1 [GTC000458A] |
| 20000 | Nc1nonc1C(=O)NC1CCNCC1 [GTC000465A] |
| 15800 | Nc1nonc1C(=O)N[C@@H]1C[C@H]1c1ccc(S(N)(=O)=O)cc1 [GTC000466A] |
| 7940 | Cc1cccc(C(=O)NCCC2(CNc3ccc(C(N)=O)cn3)CCCCC2)c1 [GTC000461A] |
| 7940 | Nc1nonc1C(=O)N[C@@H]1CC[C@H](O)C1 [GTC000456A] |
| 794 | CN1CCN(c2ccccc2CNc2ccc(C(N)=O)cn2)CC1 [GTC000471A] |
| 631 | NC(=O)c1cnc(NC2CCCC2)nc1N [GTC000464A] |
| 794 | CC(C)(C)CNc1ncc(C(N)=O)c(N)n1 [GTC000474A] |
| 316000 | c1cc(-c2ncc[nH]2)ccn1 [GTC000447A] |
| 2000 | NC(=O)c1ccc(NCc2ccccc2N2CCOCC2)nc1 [GTC000470A] |
| 3980 | CN(C)c1cccc(CNc2ccc(C(N)=O)cn2)c1 [GTC000453A] |
| 158 | Cc1cccc(C(=O)NCC2(NC(=O)c3cccc4nocc34)CCCC2)c1 [GTC000451A] |
| 100000 | CN1CCN(C(=O)c2nonc2N)CC1 [GTC000472A] |
| 2510 | COc1ccc(C(=O)n2ncnc2N)cc1 [GTC000473A] |
| 6310 | CN(C)c1ccccc1CNc1ccc(C(N)=O)cn1 [GTC000455A] |
| 200 | NC(=O)c1ccc(NC2CCCC2)nc1 [GTC000457A] |
| 3160 | NC(=O)c1ccc(NCc2ccccc2)nc1 [GTC000444A] |

| SMILES | IC50 [nM] |
| --- | --- |
| NC(=O)c1ccc(N[C@@H]2CC[C@@H](O)C2)nc1 [GTC000460A] | 200 |
| CC(C)(C)c1cccc(C(=O)NCC2(NC(=O)c3cccc4nocc34)CCCC2)c1 [GTC000450A] | 5.01 |
| NC(=O)c1ccc(N)nc1 [GTC000445A] | 25100 |
| NC[C@H]1CCC[C@@H](CNc2ccc(C(N)=O)cn2)C1 [GTC000469A] | 501 |
| COc1ccccc1CNc1ccc(C(N)=O)cn1 [GTC000454A] | 794 |

Source: BindingDB's records for doi:10.7270/Q2833QWM (D3R/Abbott, 2015)
